For assay [1], the target named is T1, IDO1 (Homo sapiens (Human), UniProt P14902). In words: IDO1 Human Whole Blood Assay. It is filed as cell-based. As to conditions: LPS and IFNγ, 18 h, kynurenine by LC/MS/MS. How it is done: Compounds to be tested were serially diluted in ten 3-fold steps in DMSO starting from 10 mM. 3 μL of compound dilutions or DMSO alone were then dispensed from the dilution plate into a polypropylene 96-well assay plate containing 97 μL of RPMI using an Echo 555 acoustic liquid handler (Labcyte). LPS and IFNγ was prepared in RPMI to a 10λ of final conc. (1000 ng/mL), final concentration is 100 ng/mL.
Human whole blood was drawn in sodium heparin coated tubes from healthy internal donors. Two hundred forty μL of blood was transferred to each of the wells of a v-bottom 96 well plate. Thirty μL of compound was transferred from intermediate dilution plate, and incubated for 15 min. […] from stimulants was then transferred to blood and mixed thoroughly. Plate was covered with breathable membrane and incubated at 37° C. for overnight (18 h).
On day 2 isotope labeled standard of kynurenine and tryptophan was made in water at 10× concentration and 30 μL was added to the blood at 3 μM final concentration. The assay plates were centrifuged at 300×G for 10 min with no brake to separate plasma from red blood cells. Sixty μL of plasma samples was removed without disturbing red blood cells.
Plasma was diluted with RPMI in 1:1 ratio and proteins were precipitated out with two volume of Acetonitrile. The plates was centrifuged at 4000×G for 60 min. Twenty μL of supernatant was carefully transferred to a 384 well plate contain 40 μL of 0.1% formic acid in water and analyzed by LC/MS/MS.
LC/MS/MS analyses were performed using Thermo Fisher's LX4-TSQ Quantum Ultra system. This system consists of four Agilent binary high-performance liquid chromatography (HPLC) pumps and a TSQ Quantum Ultra triple quadruple MS/MS instrument. For each sample, 5 μL were injected onto an Atlantis T3 column (2.1 mm×150 mm, 3 μm particle size) from Waters. The mobile phase gradient pumped at 0.8 mL/min was used to elute the analytes from the column at 25° C. The elution started at 0% B increasing linearly to 25% B at 6.5 min, holding at 25% for 1 min, re-equilibrating to 10 min. Mobile phase A consisted of 0.1% formic acid in water. Mobile phase B consisted of 0.1% of formic acid in acetonitrile. Data was acquired in positive mode using a HESI interface. The operational parameters for the TSQ Quantum Ultra instrument were a spray voltage of 4000 V, capillary temperature of 380° C., vaporizer temperature 400° C., shealth gas 60 arbitrary units, Aux gas 20 arbitrary units, tube lens 85 and collision gas 1.2 mTorr. SRM chromatograms of kynurenine (QI: 209.2>Q3:94.0) and internal standard (Q1: 215.3>Q3:98.2) were collected for 90 sec. The peak area was integrated by Xcalibur Quan software. The ratios between the kynurenine generated in the reaction and 2D6-Kynurenine spiked-in internal standard were used to generate percentage inhibition and IC50 values. Compounds were titrated and IC50's were calculated by 4 parameter sigmoidal curve fitting formula.
Target sequence in this assay (P14902 whole entry): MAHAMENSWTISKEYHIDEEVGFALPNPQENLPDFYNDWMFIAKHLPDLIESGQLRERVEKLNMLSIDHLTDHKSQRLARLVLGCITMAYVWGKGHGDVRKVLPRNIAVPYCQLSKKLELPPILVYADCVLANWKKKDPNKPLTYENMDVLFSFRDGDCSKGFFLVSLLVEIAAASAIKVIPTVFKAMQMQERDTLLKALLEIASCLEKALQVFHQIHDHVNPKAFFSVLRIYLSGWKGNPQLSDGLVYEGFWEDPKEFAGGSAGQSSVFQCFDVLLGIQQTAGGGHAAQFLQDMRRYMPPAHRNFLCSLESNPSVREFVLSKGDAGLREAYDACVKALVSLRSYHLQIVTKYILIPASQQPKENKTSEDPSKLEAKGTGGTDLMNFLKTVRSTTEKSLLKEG

In assay [2] the target is T1, IDO1. In words: IDO1 Enzyme Assay. It counts as biochemical. The settings on record: HIS-tagged recombinant IDO1, fluorescence readout. Here is the method:
Compounds to be tested were serially diluted in ten 3-fold steps in DMSO starting from 10 mM DMSO stocks. Compound dilutions or DMSO alone were then dispensed from the dilution plate into a Greiner black 384-well assay plate (catalog #781086) using an Echo 555 acoustic liquid handler (Labcyte).
HIS-tagged IDO1 protein was recombinantly expressed in Escherichia coli using ZYP5052 autoinduction media supplemented with 500 μM delta aminolevulinic acid for 48 h at 16° C. IDO1 protein was purified using Ni^2+-affinity resin and size exclusion chromatography. Purified protein was then diluted in assay buffer (50 mM Tris pH 7.0, 1% glycerol, 20 μM methylene blue, 0.05% Tween-20, 20 mM sodium ascorbate, 100 units/mL catalase to obtain a final IDO1 concentration of 40 nM. IDO1 solution […] or buffer alone ([…]) were dispensed to wells of the assay plate using a BioRAPTR liquid dispenser (Beckman Coulter). Assay plates containing compound and IDO1 enzyme were incubated at RT for 30 min. Afterwards, 10 μL of 400 μM tryptophan in assay buffer were added to each well of the assay plate using a BioRAPTR liquid dispenser. Plates were incubated at RT for 60 min and reactions were quenched by addition of 10 μL of 0.5 M methyl isonipecotate in dimethyl sulfoxide. Plates were sealed and incubated at 37° C. for 4 h or 50° C. for 2 h. The plates are allowed to cool and then centrifuged for 1 min at 1000×g. The resulting fluoresence was measured in an Envision plate reader (Perkin Elmer) with a 400/25 nm excitation filter and an 510/20 nm emission filter.
Potencies were calculated by linear least squares fit to the four parameter logistic IC50 equation.
Target sequence in this assay (P14902 whole entry, species assumed): as the sequence (P14902 whole entry) above

Assay [3] deals with T1, IDO1. As to the kind of experiment: IDO1 Cellular Assay in Hela Cells Stimulated with IFNγ. It counts as cell-based. As to conditions: about 48 hours, read-out: IDO1 HELA Cell Assay, IC50. How it is done:
Hela cells were cultured in complete Hela culture medium (90% EMEM, 10% heat-inactivated fetal bovine serum) and expanded to about 1×10^9 cells. The cells were then collected and frozen down at 10×10^6 cells/vial in 1 mL frozen medium (90% complete Hela culture medium, 10% DMSO)
Compounds to be tested were serially diluted in ten 3-fold steps in DMSO starting from 10 mM DMSO stocks in Echo low volume plate(s). Compound dilutions or DMSO alone were then dispensed from the dilution plate(s) into Greiner black 384-well assay plate(s) (catalog #781086, 50 nL/well) using an Echo 550 acoustic liquid handler (Labcyte).
Frozen Hela cells were thawed and transferred into Hela assay medium (99% complete Hela culture medium, 1% Pen/Strep) with 20 mL medium/vial of cells. The cells were spun down at 250 g in a table top centrifuge for 5 min and suspended in same volume of Hela assay medium. The cells were then counted and adjusted to a density of 2×10^5 cells/ml in Hela assay medium. Sterile L-tryptophan were added to the cells with final concentration of 300 uM L-tryptophan. A small aliquot (2 mL/plate) of Hela cells were set aside and were not treated with IFNγ, to serve as the Max-E control. The rest of Hela cells were added with sterile IFNγ (Cat #285-IF, R & D systems) with a final concentration of 100 ng/mL.
Hela cells with and without IFNγ were dispensed to the respective wells of 384-well assay plates containing the compounds. The plates were incubated for about 48 hours at a 37° C., 5% CO2 incubator. Afterwards, 12 μL of 0.5 M methyl isonipecotate in dimethyl sulfoxide were added into each well and the plates were sealed and incubated at 37° C. without CO2 overnight. The plates were centrifuged for 1 min at 200×g. The resulting fluorescence was measured in a Spectramax plate reader (Molecular Devices) with a 400 nm excitation filter and a 510 nm emission filter.
The fluorescence intensity of each well was corrected for the background observed in wells with non-IFNγ-treated cells and was expressed as a fraction of the intensity observed in wells of IFNγ-treated cells and DMSO only. Potencies were calculated by linear least squares fit to the four parameter logistic IC50 equation.
Target sequence in this assay (P14902 whole entry): as above

Here are results for 15 compounds from US10927086B2, “Substituted sulfoximine compounds as indoleamine 2,3-dioxygenase (IDO) inhibitors” (Merck Sharp & Dohme Corp., priority 2017, dated 2021).

pIC50: −log10 of the molar value.

A word on the pIC50: it is the IC50 on a negative log10 scale, so that one unit is a factor of ten.

As to `N=S1(=O)CC(Nc2nonc2/C(=N/O)N[C@H]2Cc3ccc(F)cc32)C1` (single isomer, unassigned) [Example 3], the pIC50 was 5.74 in assay [1], 6.92 in assay [2] and 6.96 in assay [3].
With `N=S1(=O)CC(Nc2nonc2/C(=N/O)N[C@H]2Cc3ccc(F)cc32)C1` (single isomer, unassigned) [Example 4], the pIC50 in assay [1] is 5.72; in assay [2], 7.04; in assay [3] it was 6.79.
The like results for `N=S1(=O)CC(CNc2nonc2/C(=N/O)N[C@H]2Cc3ccc(F)cc32)C1` (single isomer, unassigned) [Example 5] were, in that order, 6.39, 6.99 and 6.77.
Take `N=S1(=O)CC(CNc2nonc2/C(=N/O)N[C@H]2Cc3ccc(F)cc32)C1` (single isomer, unassigned) [Example 6]: the pIC50 in assay [1] was 6.31; in assay [2] it was 7.29; in assay [3], 7.04.
Consider `CS(=N)(=O)N1CC(O)(CNc2nonc2/C(=N/O)N[C@H]2Cc3ccc(F)cc32)C1` (single isomer, unassigned) [Example 36], for which the negative-log IC50 (pIC50) in assay [1] is 5.79; in assay [2], 7.07; in assay [3] it was 6.83.
As to `CS(=N)(=O)N1CC(Oc2nonc2/C(=N/O)N[C@H]2Cc3ccc(F)cc32)C1` (single isomer, unassigned) [Example 41], the pIC50 in assay [1] was 6.65; in assay [2], 7.03; in assay [3] it was 6.93.
In the same order, the values of `CS(=N)(=O)N1CCO[C@@H](CNc2nonc2/C(=N\O)N[C@@H]2Cc3ccc(F)cc32)C1` (single isomer, unassigned) [Example 63] are 5.92, 7.01 and 7.14.
The like results for `C[S@](=N)(=O)CCNc1nonc1/C(=N/O)N[C@H]1Cc2ccc(F)cc21` [Example 1, N—((S)-4-fluorobicyclo[4.2.0]octa-1(6),2,4-trien-7-yl)-N′-hydroxy-4-((2-((S)—S-methylsulfonimidoyl)ethyl)amino)-1,2,5-oxadiazole-3-carboximidamide] were, in that order, 6.37, 7.07 and 7.25.
In the same order, the values of `C[S@@](=N)(=O)CCNc1nonc1/C(=N/O)N[C@H]1Cc2ccc(F)cc21` [Example 2, N—((S)-4-fluorobicyclo[4.2.0]octa-1(6),2,4-trien-7-yl)-N′-hydroxy-4-((2-((R)—S-methylsulfonimidoyl)ethyl)amino)-1,2,5-oxadiazole-3-carboximidamide] are 6.41, 7.06 and 7.22.
On to `CS(=N)(=O)NCCNc1nonc1/C(=N/O)N[C@H]1Cc2ccc(F)cc21` (stereo partly drawn) [Example 11, N—((S)-4-fluorobicyclo[4.2.0]octa-1(6),2,4-trien-7-yl)-N′-hydroxy-4-((2-(methylsulfonoamidimidamido)ethyl)amino)-1,2,5-oxadiazole-3-carboximidamide], for which the pIC50 in assay [2] was 7.41; in assay [3] it was 7.56.
Turning to `CS(=N)(=O)CCNC(=O)CNc1nonc1/C(=N/O)N[C@H]1Cc2ccc(F)cc21` (stereo partly drawn) [Example 12, 2-((4-(N-((S)-4-fluorobicyclo[4.2.0]octa-1(6),2,4-trien-7-yl)-N′-hydroxycarbamimidoyl)-1,2,5-oxadiazol-3-yl)amino)-N-(2-(S-methylsulfonimidoyl)ethyl)acetamide], the pIC50 was 7.31 in assay [2] and 6.94 in assay [3].
For `CS(=O)(/C=C/Nc1nonc1/C(=N/O)N[C@H]1Cc2ccc(F)cc21)=NC#N` (stereo partly drawn) [Example 15, 4-(((E)-2-(N-cyano-S-methylsulfonimidoyl)vinyl)amino)-N-((S)-4-fluorobicyclo[4.2.0]octa-1(6),2,4-trien-7-yl)-N′-hydroxy-1,2,5-oxadiazole-3-carboximidamide], the figures for the pIC50 in assay [1], in assay [2] and in assay [3] were 6.06, 6.78 and 7.70, respectively.
Regarding `CN=S(C)(=O)CCNC(=O)CNc1nonc1/C(=N/O)N[C@H]1Cc2ccc(F)cc21` (stereo partly drawn) [Example 40, N-[2-(N,S-dimethylsulfonimidoyl)ethyl]-N~2~-(4-{N-[(7S)-4-fluorobicyclo[4.2.0]octa-1,3,5-trien-7-yl]-N′-hydroxycarbamimidoyl}-1,2,5-oxadiazol-3-yl)glycinamide], the pIC50 was 6.63 in assay [2] and 6.70 in assay [3].
Take `CS(=N)(=O)NCCCCNc1nonc1/C(=N/O)N[C@H]1Cc2ccc(F)cc21` (stereo partly drawn) [Example 53, N-[(7S)-4-fluorobicyclo[4.2.0]octa-1,3,5-trien-7-yl]-N′-hydroxy-4-({4-[(S-methylsulfonimidoyl)amino]butyl}amino)-1,2,5-oxadiazole-3-carboximidamide]: the results for the pIC50 in assay [2] and in assay [3] were 7.16 and 7.35, respectively.
The like results for `CN(CCNc1nonc1/C(=N\O)N[C@H]1Cc2ccc(F)cc21)S(C)(=N)=O` (stereo partly drawn) [Example 54, N-[(7S)-4-fluorobicyclo[4.2.0]octa-1,3,5-trien-7-yl]-N′-hydroxy-4-({2-[methyl(S-methylsulfonimidoyl)amino]ethyl}amino)-1,2,5-oxadiazole-3-carboximidamide] were, in that order, 6.97 and 6.99.
